{"source": "patent US7037913B2", "about": "“Bicyclo 4.4.0 antiviral derivatives” (priority 2002, dated 2006)", "test_system": "HIV-1 single-round infectious reporter virus", "assay": "Single-round infectious HIV-1 luciferase reporter virus infection of HeLa CD4 CCR5 cells", "type": "cell-based", "details": "Human immunodeficiency virus 1, HeLa-CD4/CCR5, 72 h, read-out: Group (EC50)", "excerpt": "The materials and experimental procedures used to obtain the results for representative compounds of Formula I reported in Tables 7–9 are described below.\n• Virus production—Human embryonic Kidney cell line, 293, propagated in Dulbecco's Modified Eagle Medium (Life Technologies, Gaithersburg, Md.) containing 10% fetal Bovine serum (FBS, Sigma, St. Louis, Mo.). • Virus infection—Human epithelial cell line, HeLa, expressing the HIV-1 receptors CD4 and CCR5 was propagated in Dulbecco's Modified Eagle Medium (Life Technologies, Gaithersburg, Md.) containing 10% fetal Bovine serum (FBS, Sigma, St. Louis, Mo.) and supplemented with 0.2 mg/ml Geneticin (Life Technologies, Gaithersburg, Md.) and 0.4 mg/ml Zeocin (Invitrogen, Carlsbad, Calif.). • Virus—Single-round infectious reporter virus was produced by co-transfecting human embryonic Kidney 293 cells with an HIV-1 envelope DNA expression vector and a proviral cDNA containing an envelope deletion mutation and the luciferase reporter gene inserted in place of HIV-1 nef sequences (Chen et al, Ref. 41). […] Viral infection was monitored by measuring luciferase expression from viral DNA in the infected cells using a luciferase reporter gene assay kit (Roche Molecular Biochemicals, Indianapolis, Ind.). […] Luciferase activity was then quantified by measuring luminescence using a Wallac microbeta scintillation counter. • 5. […]"}
{"smiles": "C[C@@H]1CN(C(=O)c2ccccc2)CCN1C(=O)C(F)(F)c1ccc2ccccc2c1", "note": "[Example 54]", "values": [{"measurement": "EC50", "value": "< 1000", "unit": "nM"}]}
{"smiles": "C[C@@H]1CN(C(=O)c2ccccc2)CCN1C(=O)C1(c2ccc3ccccc3c2)CC1", "note": "[Example 55]", "values": [{"measurement": "EC50", "value": "< 1000", "unit": "nM"}]}
